Laboratory results published in PMC8708751, “Hit Identification of a Novel Quinazoline Sulfonamide as a Promising EphB3 Inhibitor: Design, Virtual Combinatorial Library, Synthesis, Biological Evaluation, and Docking Simulation Studies” (Pharmaceuticals, 2021).

Target: T1, EphB2 (Homo sapiens, UniProt P29323)
T1 construct: purchased Reaction Biology Co. (Kinase HotSpot service)
T1 sequence (P29323 19-1055): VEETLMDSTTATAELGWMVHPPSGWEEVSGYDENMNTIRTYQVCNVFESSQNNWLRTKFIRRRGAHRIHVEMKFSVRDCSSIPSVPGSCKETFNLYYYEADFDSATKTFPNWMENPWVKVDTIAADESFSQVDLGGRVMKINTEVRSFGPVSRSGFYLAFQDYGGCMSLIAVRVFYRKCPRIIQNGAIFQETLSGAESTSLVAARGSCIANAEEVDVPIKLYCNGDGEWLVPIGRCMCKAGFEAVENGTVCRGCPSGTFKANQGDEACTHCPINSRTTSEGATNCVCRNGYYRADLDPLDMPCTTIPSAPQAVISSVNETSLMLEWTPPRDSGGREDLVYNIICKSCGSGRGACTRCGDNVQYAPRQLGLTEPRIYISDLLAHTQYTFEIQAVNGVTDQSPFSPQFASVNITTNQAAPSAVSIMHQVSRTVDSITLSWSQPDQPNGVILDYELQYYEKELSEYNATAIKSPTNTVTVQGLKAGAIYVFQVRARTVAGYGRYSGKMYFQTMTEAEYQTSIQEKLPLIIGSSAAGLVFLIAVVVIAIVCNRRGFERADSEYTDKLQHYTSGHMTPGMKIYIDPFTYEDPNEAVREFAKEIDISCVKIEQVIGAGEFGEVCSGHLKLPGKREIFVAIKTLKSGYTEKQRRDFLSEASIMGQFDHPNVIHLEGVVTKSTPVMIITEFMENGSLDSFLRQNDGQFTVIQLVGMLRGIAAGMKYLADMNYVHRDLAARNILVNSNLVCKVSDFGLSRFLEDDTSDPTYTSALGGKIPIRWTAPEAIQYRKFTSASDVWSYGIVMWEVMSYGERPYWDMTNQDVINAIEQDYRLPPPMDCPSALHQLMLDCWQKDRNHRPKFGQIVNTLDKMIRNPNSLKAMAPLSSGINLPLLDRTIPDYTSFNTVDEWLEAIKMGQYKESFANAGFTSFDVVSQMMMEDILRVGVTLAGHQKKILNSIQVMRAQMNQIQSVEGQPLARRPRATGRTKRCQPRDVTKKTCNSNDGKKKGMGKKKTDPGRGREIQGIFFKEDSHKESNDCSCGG
Assay: Kinase panel assay, EphB2
Assay type: biochemical
Protocol: […]. A further dose-dependent assay was conducted to validate the selectivity of compound 4c over the EphB isoforms. […]. Accordingly, it could be considered as a promising selective inhibitor for EphB3 isoform.
The screening of the tested compounds was performed using the Kinase HotSpot^SM service from Reaction Biology Co. (http://www.reactionbiology.com, accessed on 25 September 2021). The HotSpot assay platform contains specific kinase/substrate pairs along with required cofactors. Base reaction buffer: 20 mM Hepes (pH 7.5), 10 mM MgCl2, 1 mM EGTA, 0.02% Brij35, 0.02 mg/mL BSA, 0.1 mM Na3VO4, 2 mM DTT, 1% DMSO. The tested compounds were dissolved in 100% DMSO to specific concentration. The serial dilution was conducted by Integra Viaflo Assist in DMSO (Sigma-Aldrich, Burlington, MA, USA). The reaction mixture containing the examined compound and 33P-ATP was incubated at room temperature for 2 h, and radioactivity was detected by filter-binding method. Kinase activity data were expressed as the percent remaining kinase activity in test samples compared to vehicle (dimethyl sulfoxide) reactions. IC50 values and curve fits were obtained using Prism (GraphPad Software, San Diego, CA, USA).

- inhibition at 10 µM (EphB2, 10 µM, read-out: Average % Enzyme Inhibition (Relative to DMSO Controls) at 10 µM): 76.32 ± 0.61%
- IC50 (EphB2, dose-dependent assay): 3.95 µM
SMILES: NS(=O)(=O)c1ccc(Nc2ncnc3ccc(-c4cccc(O)c4)cc23)cc1 [Compound 4c, 4-((6-(3-Hydroxyphenyl)quinazolin-4-yl)amino)benzenesulfonamide]
